In patent US5837868A, “Process for preparation of chiral 3-amino-pyrrolidine and analogous bicyclic compounds” (Abbott Laboratories, priority 1997, dated 1998):

How the values were obtained:
Staph. aureus ATCC 6538P = assay: In vitro antibacterial activity, agar dilution MIC; format: cell-based; conditions: Staph. aureus ATCC 6538P; BHI agar dilution, 20-24 hours
Experimental: (§1) Each plate was inoculated with 1:100 (or 1:10 for slow-growing strains, primarily Micrococcus and Streptococcus) dilutions of up to 32 different microorganisms, using a Steers replicator block calibrated to deliver approximately 10^4 colony forming units (CFUs). The inoculated plates were incubated at from about 35° C. to about 37° C. for approximately 20-24 hours. In addition, a control plate using BHI agar containing no test compound was prepared and incubated at the beginning and at the end of each test. The quinolone antibacterial ciprofloxacin was used as a control ("Cntl").
(§2) The MIC was defined as the lowest concentration of test compound yielding no growth (a slight haze or sparsely isolated colonies at the inoculum spot) as compared to the growth control containing no test compound.

Staph. aureus A5177 = assay: In vitro antibacterial activity, agar dilution MIC; format: cell-based; conditions: Staph. aureus A5177; BHI agar dilution, 20-24 hours
Experimental: as §1, §2

Staph. aureus 5278 = assay: In vitro antibacterial activity, agar dilution MIC; format: cell-based; conditions: Staph. aureus 5278; BHI agar dilution, 20-24 hours
Experimental: as §1, §2

Staph. aureus 642A = assay: In vitro antibacterial activity, agar dilution MIC; format: cell-based; conditions: Staph. aureus 642A; BHI agar dilution, 20-24 hours
Experimental: as §1, §2

Staph. aureus CMX 553 = assay: In vitro antibacterial activity, agar dilution MIC; format: cell-based; conditions: Staph. aureus CMX 553; BHI agar dilution, 20-24 hours
Experimental: as §1, §2

[1] = tested on: Staph. aureus 1775 Cipro. R.; assay: In vitro antibacterial activity, agar dilution MIC; format: cell-based; conditions: Staph. aureus 1775 Cipro. R.; BHI agar dilution, 20-24 hours
Experimental: as §1, §2

Staph. epidermidis 3519 = assay: In vitro antibacterial activity, agar dilution MIC; format: cell-based; conditions: Staph. epidermidis 3519; BHI agar dilution, 20-24 hours
Experimental: as §1, §2

[2] = tested on: Entero. faecium ATCC 8043; assay: In vitro antibacterial activity, agar dilution MIC; format: cell-based; conditions: Entero. faecium ATCC 8043; BHI agar dilution, 20-24 hours
Experimental: as §1, §2

Strep. bovis A5169 = assay: In vitro antibacterial activity, agar dilution MIC; format: cell-based; conditions: Strep. bovis A5169; BHI agar dilution, 20-24 hours
Experimental: as §1, §2

[3] = tested on: Strep. agalactiae CMX 508; assay: In vitro antibacterial activity, agar dilution MIC; format: cell-based; conditions: Strep. agalactiae CMX 508; BHI agar dilution, 20-24 hours
Experimental: as §1, §2

Strep. pyogenes EES61 = assay: In vitro antibacterial activity, agar dilution MIC; format: cell-based; conditions: Strep. pyogenes EES61; BHI agar dilution, 20-24 hours
Experimental: as §1, §2

[4] = tested on: Strep. pyogenes 930 CONST; assay: In vitro antibacterial activity, agar dilution MIC; format: cell-based; conditions: Strep. pyogenes 930 CONST; BHI agar dilution, 20-24 hours
Experimental: as §1, §2

[5] = tested on: Strep. pyogenes 2548 INDUC; assay: microbe, parasite or virus in culture; format: cell-based; conditions: Strep. pyogenes 2548 INDUC; BHI agar dilution, 20-24 hours
Experimental: as §1, §2

M. luteus ATCC 9341 = assay: In vitro antibacterial activity, agar dilution MIC; format: cell-based; conditions: M. luteus ATCC 9341; BHI agar dilution, 20-24 hours
Experimental: as §1, §2

M. luteus ATCC 4698 = assay: In vitro antibacterial activity, agar dilution MIC; format: cell-based; conditions: M. luteus ATCC 4698; BHI agar dilution, 20-24 hours
Experimental: as §1, §2

Escherichia coli Juhl = assay: In vitro antibacterial activity, agar dilution MIC; format: cell-based; conditions: Escherichia coli Juhl; BHI agar dilution, 20-24 hours
Experimental: as §1, §2

E. coli SS = assay: In vitro antibacterial activity, agar dilution MIC; format: cell-based; conditions: E. coli SS; BHI agar dilution, 20-24 hours
Experimental: as §1, §2

E. coli DC-2 = assay: In vitro antibacterial activity, agar dilution MIC; format: cell-based; conditions: E. coli DC-2; BHI agar dilution, 20-24 hours
Experimental: as §1, §2

E. coli H560 = assay: In vitro antibacterial activity, agar dilution MIC; format: cell-based; conditions: E. coli H560; BHI agar dilution, 20-24 hours
Experimental: as §1, §2

E. coli KNK 437 = assay: In vitro antibacterial activity, agar dilution MIC; format: cell-based; conditions: E. coli KNK 437; BHI agar dilution, 20-24 hours
Experimental: as §1, §2

[6] = tested on: Enter. aerogenes ATCC 13048; assay: In vitro antibacterial activity, agar dilution MIC; format: cell-based; conditions: Enter. aerogenes ATCC 13048; BHI agar dilution, 20-24 hours
Experimental: as §1, §2

[7] = tested on: Klebs. pneumoniae ATCC 8045; assay: In vitro antibacterial activity, agar dilution MIC; format: cell-based; conditions: Klebs. pneumoniae ATCC 8045; BHI agar dilution, 20-24 hours
Experimental: as §1, §2

[8] = tested on: Providencia stuartii CMX 640; assay: In vitro antibacterial activity, agar dilution MIC; format: cell-based; conditions: Providencia stuartii CMX 640; BHI agar dilution, 20-24 hours
Experimental: as §1, §2

P. aeruginosa BMH 10 = assay: In vitro antibacterial activity, agar dilution MIC; format: cell-based; conditions: P. aeruginosa BMH 10; BHI agar dilution, 20-24 hours
Experimental: as §1, §2

P. aeruginosa A5007 = assay: In vitro antibacterial activity, agar dilution MIC; format: cell-based; conditions: P. aeruginosa A5007; BHI agar dilution, 20-24 hours
Experimental: as §1, §2

P. aeruginosa K799/WT = assay: In vitro antibacterial activity, agar dilution MIC; format: cell-based; conditions: P. aeruginosa K799/WT; BHI agar dilution, 20-24 hours
Experimental: as §1, §2

P. aeruginosa K799/61 = assay: In vitro antibacterial activity, agar dilution MIC; format: cell-based; conditions: P. aeruginosa K799/61; BHI agar dilution, 20-24 hours
Experimental: as §1, §2

Pseudomonas cepacia 296I = assay: In vitro antibacterial activity, agar dilution MIC; format: cell-based; conditions: Pseudomonas cepacia 296I; BHI agar dilution, 20-24 hours
Experimental: as §1, §2

[9] = tested on: Acinetob. calcoaceticus CMX 669; assay: In vitro antibacterial activity, agar dilution MIC; format: cell-based; conditions: Acinetob. calcoaceticus CMX 669; BHI agar dilution, 20-24 hours
Experimental: as §1, §2

P. aeruginosa 2862 = assay: In vitro antibacterial activity, agar dilution MIC; format: cell-based; conditions: P. aeruginosa 2862; BHI agar dilution, 20-24 hours
Experimental: as §1, §2

Myco. smegmatis ATCC 114 = assay: In vitro antibacterial activity, agar dilution MIC; format: cell-based; conditions: Myco. smegmatis ATCC 114; BHI agar dilution, 20-24 hours
Experimental: as §1, §2

[10] = tested on: Nocardia asteroides ATCC 9970; assay: In vitro antibacterial activity, agar dilution MIC; format: cell-based; conditions: Nocardia asteroides ATCC 9970; BHI agar dilution, 20-24 hours
Experimental: as §1, §2

P. aeruginosa 5263 = conditions: BHI agar dilution, 20-24 hours
Experimental: as §1, §2

Candida albicans CCH 442 = assay: In vitro antibacterial activity, agar dilution MIC; conditions: Candida albicans CCH 442; BHI agar dilution, 20-24 hours
Experimental: as §1, §2

CC[C@@H]1CN(c2c(F)cn3c(=O)c(C(=O)O)cc(C4CC4)c3c2C)C[C@H]1N.Cl (single isomer, unassigned; diastereomer a) [Ex. 2, 8-(trans-3-amino-4-ethylpyrrolidin-1-yl)-1-cyclopropyl-7-fluoro-4H-9-methyl-4-oxo-quinolizine-3-carboxylic acid hydrochloride diastereomer A]
MIC (Staph. aureus ATCC 6538P): 0.02 µg/mL | MIC (Staph. aureus A5177): 0.02 µg/mL | MIC (Staph. aureus 5278): 0.05 µg/mL | MIC (Staph. aureus 642A): 0.02 µg/mL | MIC (Staph. aureus CMX 553): 0.02 µg/mL | MIC [1]: 0.78 µg/mL | MIC (Staph. epidermidis 3519): 0.05 µg/mL | MIC [2]: 0.05 µg/mL | MIC (Strep. bovis A5169): 0.1 µg/mL | MIC [3]: 0.02 µg/mL | MIC (Strep. pyogenes EES61): 0.02 µg/mL | MIC [4]: 0.05 µg/mL | MIC [5]: 0.05 µg/mL | MIC (M. luteus ATCC 9341): 0.05 µg/mL | MIC (M. luteus ATCC 4698): 0.05 µg/mL | MIC (Escherichia coli Juhl): 0.01 µg/mL | MIC (E. coli SS): 0.001 µg/mL | MIC (E. coli DC-2): 0.1 µg/mL | MIC (E. coli H560): 0.01 µg/mL | MIC (E. coli KNK 437): 0.1 µg/mL | MIC [6]: 0.1 µg/mL | MIC [7]: 0.05 µg/mL | MIC [8]: 0.39 µg/mL | MIC (P. aeruginosa BMH 10): 0.2 µg/mL | MIC (P. aeruginosa A5007): 0.39 µg/mL | MIC (P. aeruginosa K799/WT): 0.78 µg/mL | MIC (P. aeruginosa K799/61): 0.1 µg/mL | MIC (Pseudomonas cepacia 296I): 1.56 µg/mL | MIC [9]: 0.05 µg/mL | MIC (P. aeruginosa 2862): 6.2 µg/mL | MIC (Myco. smegmatis ATCC 114): 0.02 µg/mL | MIC [10]: 0.78 µg/mL | MIC (P. aeruginosa 5263): 3.1 µg/mL | MIC (Candida albicans CCH 442): > 100 µg/mL
